Publication PMC12349723, “Computationally accelerated identification of P-glycoprotein inhibitors” (PLOS One, 2025)

Tested on: not listed separately
Experiment: Resazurin cell viability pre-screen in DU145-TXR cells with or without PTX
Type: cell-based
Settings: human, mean of two experiments in triplicate, read-out: Viability, 15 µM compound alone
Procedure: Culture of the DU145, DU145-TXR, and HFL1 cell lines was performed as described in [8]. Culture of the A2780 and A2780-ADR cell lines was performed as described in [9]. MTT assays were performed as described in [8] with minor modifications. LC-MS/MS accumulation assays were performed as described in {Nanayakkara, 2018 #173} [9] with some modifications. […] The inhibitor concentration was lowered to 15 µM here, as the goal of the study was to identify compounds that were effective in reversing MDR at low concentrations, and to determine if the expanded virtual-assisted methods improved on our first-draft attempt. Compounds 56–98 were pre-screened using Resazurin cell viability assays: cells were incubated with 15 µM compound with or without 500 nM PTX for 48 hours, after which cell survival was assessed similar to [39]. Data represent the mean of two separate experiments, with n = 3 samples per experiment (n = 6 total) (S4 Table). The top performing compounds from this initial screen were re-tested with MTT viability assays against DU145-TXR cells, as described below.
S4 Table. Pre-screening of compounds 56 – 98 against DU145-TXR cells with resazurin assays. DU145-TXR cells were incubated with 15 µM compound with or without 500nM PTX for 48 hrs; survival was subsequently determined with the Resazurin viability assay ^[37]. […] Percent re-sensitization is defined as the percent change in viability between cells treated with compound and PTX, versus cells treated with PTX alone. In some instances, the assay reported an increase in viability with compound + PTX, and no percent sensitization is reported. ‘Follow-up Testing’ compounds were re-assessed with MTT assays (Figure 1). Compounds 59 and 89 (*, ‘Follow-up Testing’) were used as negative controls in follow-up MTT assays to test for consistency of results, e.g. to confirm that molecules eliminated in Resazurin assays were justifiably eliminated from later screening with MTT assays.
Compound `Cn1cnnc1SCc1c(C(=O)O)nnn1-c1nonc1N` [Compound 59, Cn1cnnc1SCc1c(nnn1-c1nonc1N)C(O)=O] has a viability at 48 h, 15 µM of 101%. With `Nc1nonc1-n1nnc(C(=O)N/N=C/c2c3ccccc3cc3ccccc23)c1COc1ccc(F)cc1` [Compound 60, Nc1nonc1-n1nnc(C(=O)N\N=C\c2c3ccccc3cc3ccccc23)c1COc1ccc(F)cc1] the viability at 48 h, 15 µM was 88%. For `CCN1CCN(Cc2c(C(=O)N/N=C3/C(=O)N(C)c4ccccc43)nnn2-c2nonc2N)CC1` [Compound 61, CCN1CCN(Cc2c(nnn2-c2nonc2N)C(=O)N\N=C2\C(=O)N(C)c3ccccc23)CC1], the viability at 48 h, 15 µM was 98.8%. In the case of `O=C(c1cc2ccccc2[nH]1)N1CCN(S(=O)(=O)c2cccc3nonc23)CC1` [Compound 66, O=C(N1CCN(CC1)S(=O)(=O)c1cccc2nonc12)c1cc2ccccc2[nH]1], the viability at 48 h, 15 µM is reported as 98.3%. Work on `O=C(c1nc(-c2ccc3cc[nH]c3c2)no1)N1CCN(c2nsc3ccccc23)CC1` [Compound 70, O=C(N1CCN(CC1)c1nsc2ccccc12)c1nc(no1)-c1ccc2cc[nH]c2c1] yielded a viability at 48 h, 15 µM of 99.2%. For `COc1ccc(OC)c(NC(=O)c2nnn(-c3ccc4noc(-c5ccccc5)c4c3)c2C)c1` [Compound 71, COc1ccc(OC)c(NC(=O)c2nnn(c2C)-c2ccc3noc(-c4ccccc4)c3c2)c1], the viability at 48 h, 15 µM was 93%. With `Cc1onc(-c2ccccc2)c1-c1nnc(Cn2cnc3c(oc4ccccc43)c2=O)o1` [Compound 78, Cc1onc(c1-c1nnc(Cn2cnc3c4ccccc4oc3c2=O)o1)-c1ccccc1] the viability at 48 h, 15 µM was 95.2%. In the case of `NS(=O)(=O)c1cccc(NC(=O)CSc2nnnn2C2CC2)c1` [Compound 89, NS(=O)(=O)c1cccc(NC(=O)CSc2nnnn2C2CC2)c1], the viability at 48 h, 15 µM is reported as 93.7%. `O=S(=O)(CCSc1nnc(-c2ccccc2)c2ccccc12)c1ccccc1` [Compound 96, O=S(=O)(CCSc1nnc(-c2ccccc2)c2ccccc12)c1ccccc1] showed a viability at 48 h, 15 µM of 89.4%. In the case of `O=S(=O)(Cc1nc2ccccc2n1CC(O)c1ccc(Cl)cc1)c1ccccc1` (stereo not drawn) [Compound 97, OC(Cn1c(CS(=O)(=O)c2ccccc2)nc2ccccc12)c1ccc(Cl)cc1], the viability at 48 h, 15 µM is reported as 102%. In the case of `COc1cc2c(cc1OC)CN(CCc1ccc(NC(=O)c3cc(OC)c(OC)cc3NC(=O)c3cnc4ccccc4c3)cc1)CC2` [Tariquidar, reference compound], the viability at 48 h, 15 µM is reported as 75.2%.

Tested on: P-gp
Experiment: not given
Set-up: method as in earlier work
Settings: ref [66-68]; cited from earlier work
For `COc1cc2c(cc1OC)CN(CCc1ccc(NC(=O)c3cc(OC)c(OC)cc3NC(=O)c3cnc4ccccc4c3)cc1)CC2` [Tariquidar, reference compound], the “P-gp Substrate? (known transport substrate of P-gp)” value is given as “Yes”.
